The experiment addresses Human Cot (Homo sapiens (Human), UniProt P41279). Nature of the experiment: High Throughput Cot Biochemical Assay.
[1] abbreviates: IC50 HTRF, Cot HTRF (TR-FRET) biochemical assay.
Where [2] appears, read: read-out: IC50 HTRF, Cot HTRF (TR-FRET) biochemical assay.
The mark [3] stands for this setting: IC50 HTRF, Cot HTRF (TR-FRET KinEASE) biochemical assay, 400 μM ATP.

Like-named read-outs stand apart in the source and are kept apart here.

For 26 compounds, IC50 results are on record in patent US11066414B2, “Cot modulators and methods of use thereof” (Gilead Sciences, Inc., priority 2015, dated 2021).

The IC50 is the concentration needed to halve the response being measured.

Sequence of Human Cot (P41279 30-397): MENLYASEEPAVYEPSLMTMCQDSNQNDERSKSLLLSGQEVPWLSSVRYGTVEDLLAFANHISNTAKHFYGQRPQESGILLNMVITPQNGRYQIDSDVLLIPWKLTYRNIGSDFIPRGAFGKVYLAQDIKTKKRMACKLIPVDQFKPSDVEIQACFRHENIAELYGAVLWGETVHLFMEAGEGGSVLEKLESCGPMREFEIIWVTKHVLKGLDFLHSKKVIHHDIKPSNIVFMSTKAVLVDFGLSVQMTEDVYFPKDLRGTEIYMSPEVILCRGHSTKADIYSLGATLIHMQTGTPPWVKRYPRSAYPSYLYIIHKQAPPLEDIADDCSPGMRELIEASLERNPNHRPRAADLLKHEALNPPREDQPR

Under setting [1], `CCN1CCC(n2cc([C@@H](Nc3cc(Cl)c4ncc(C#N)c(Nc5ccc(F)c(Cl)c5)c4c3)c3ccsc3)nn2)CC1` [Example 392, (S)-8-chloro-4-((3-chloro-4-fluoro-phenyl)amino)-6-(((1-(1-ethylpiperidin-4-yl)-1H-1,2,3-triazol-4-yl)(thiophen-3-yl)methyl)amino)quinoline-3-carbonitrile] showed a half-inhibitory concentration (IC50) of 3 nM.
The same measure, in the same setting: the figure for `CCc1ncccc1[C@H](Nc1cc(Cl)c2ncc(C#N)c(NCC(C)(C)C)c2c1)c1cn(C2(C(F)F)CC2)nn1` [Example 604, (S)-8-chloro-6-(((1-(1-(difluoromethyl)cyclo-propyl)-1H-1,2,3-triazol-4-yl)(2-ethylpyridin-3-yl)methyl)amino)-4-(neopentylamino)-quinoline-3-carbonitrile] is 3 nM; for `Cc1nc(F)ccc1[C@H](Nc1cc(Cl)c2ncc(C#N)c(NCC(C)(C)C)c2c1)c1nnn(C2CC2)c1C#N` [Example 686, (S)-8-chloro-6-(((5-cyano-1-cyclopropyl-1H-1,2,3-triazol-4-yl)(6-fluoro-2-methylpyridin-3-yl)methyl)amino)-4-(neopentylamino)quinoline-3-carbonitrile] it is 4 nM; for `CC(C)(C)CNc1c(C#N)cnc2c(Cl)cc(N[C@H](c3cn(C4(CO)CC4)nn3)c3cccc4ncsc34)cc12` [Example 458, (S)-6-((benzo[d]thiazol-7-yl(1-(1-(hydroxymethyl)cyclopropyl)-1H-1,2,3-triazol-4-yl)methyl)amino)-8-chloro-4-(neopentylamino)quinoline-3-carbonitrile] it is 4 nM.
Regarding `N#Cc1csc([C@H](Nc2cc(Cl)c3ncc(C#N)c(Nc4ccc(F)c(Cl)c4)c3c2)c2cn(CCN3CCOCC3)nn2)c1` [Example 332, (R)-8-chloro-4-((3-chloro-4-fluorophenyl)amino)-6-(((4-cyanothiophen-2-yl)(1-(2-morpho-linoethyl)-1H-1,2,3-triazol-4-yl)methyl)amino)quinoline-3-carbonitrile], the IC50 under setting [2] is 65 nM.
Compound `CC(C)(C)CNc1c(C#N)cnc2c(Cl)cc(N[C@H](c3cn(C4(C)CC4)nn3)c3cccc4ncsc34)cc12` [Example 434, (S)-6-((benzo[d]thiazol-7-yl(1-(1-methylcyclopropyl)-1H-1,2,3-triazol-4-yl)methyl)amino)-8-chloro-4-(neopentylamino)quinoline-3-carbonitrile] returned an IC50 under setting [1] of 2 nM.
In turn, `Cc1nc(F)ccc1[C@H](Nc1cc(C#N)c2ncc(C#N)c(NCC(C)(C)C)c2c1)c1nnn(C)c1F` [Example 906, (S)-6-(((5-fluoro-1-methyl-1H-1,2,3-triazol-4-yl)(6-fluoro-2-methylpyridin-3-yl)methyl)amino)-4-(neopentylamino)quinoline-3,8-dicarbonitrile] registered a 50% inhibitory concentration (IC50) under setting [3] of 4 nM.
Under setting [3], `Cc1nc(F)ccc1[C@H](Nc1cc(C#N)c2ncc(C#N)c(NCC(C)(C)C)c2c1)c1cn(C(CF)CF)nn1` [Example 869, (S)-6-(((1-(1,3-difluoropropan-2-yl)-1H-1,2,3-triazol-4-yl)(6-fluoro-2-methylpyridin-3-yl)methyl)amino)-4-(neopentylamino)quinoline-3,8-dicarbonitrile] came in with an IC50 of 2 nM.
In the case of `CC(C)(C)CNc1c(C#N)cnc2c(C#N)cc(N[C@H](c3cn(C4(C5CC5)CC4)nn3)c3cccc4ncccc34)cc12` [Example 696], the half-maximal inhibitory concentration (IC50) under setting [2] came to 2 nM.
`CCN1CCC(n2cc([C@@H](Nc3cc(Cl)c4ncc(C#N)c(Nc5ccc(F)c(Cl)c5)c4c3)c3ccc(C(F)(F)F)s3)nn2)CC1` [Example 365, (R)-8-chloro-4-((3-chloro-4-fluorophenyl)amino)-6-(((1-(1-ethylpiperidin-4-yl)-1H-1,2,3-triazol-4-yl)(5-(trifluoromethyl)thiophen-2-yl)methyl)amino)quinoline-3-carbonitrile] returned a half-inhibitory concentration (IC50) under setting [1] of 38 nM.
On the same count and under the same terms, the figure for `COCCn1cc([C@@H](Nc2cc(Cl)c3ncc(C#N)c(Nc4ccc(F)c(Cl)c4)c3c2)c2cc(C#N)cs2)nn1` [Example 337, (R)-8-chloro-4-((3-chloro-4-fluorophenyl)amino)-6-(((4-cyanothiophen-2-yl)(1-(2-methoxy-ethyl)-1H-1,2,3-triazol-4-yl)methyl)amino)quinoline-3-carbonitrile] is 16 nM.
As to `Cc1ncsc1[C@H](Nc1cc(Cl)c2ncc(C#N)c(NCC(C)(C)C)c2c1)c1cn(C2(C(F)(F)F)CC2)nn1` [Example 701, (R)-8-chloro-6-(((4-methylthiazol-5-yl)(1-(1-(trifluoromethyl)cyclopropyl)-1H-1,2,3-triazol-4-yl)methyl)airiino)-4-(neopentylamino)quinoline-3-carbonitrile], the IC50 under setting [2] came to 10 nM.
Turning to `N#Cc1cnc2c(Cl)cc(NC(c3cccnc3)c3cn([C@@H]4CCN(C(=O)OCc5ccccc5)C4)nn3)cc2c1Nc1ccc(F)c(Cl)c1` (stereo partly drawn) [Example 400, benzyl (3R)-3-(4-(((8-chloro-4-((3-chloro-4-fluorophenyl)amino)-3-cyanoquinolin-6-yl)amino)(pyridin-3-yl)methyl)-1H-1,2,3-triazol-1-yl)pyrrolidine-1-carboxylate], under setting [1], the half-inhibitory concentration (IC50) worked out at 119 nM.
Same read-out and setting: to `CC(C)(C)CNc1c(C#N)cnc2c(Cl)cc(N[C@H](c3cn(C4(C(F)(F)F)CC4)nn3)c3ccc(F)c4ncccc34)cc12` [Example 617, (S)-8-chloro-6-(((8-fluoroquinolin-5-yl)(1-(1-(trifluoromethyl)cyclopropyl)-1H-1,2,3-triazol-4-yl)methyl)amino)-4-(neopentylamino)quinoline-3-carbonitrile] belongs 9 nM.
Under setting [3], `CC(C)(CNc1c(C#N)cnc2c(C#N)cc(N[C@H](c3cn(C45CC(C4)C5)nn3)c3ccc(F)c4ncccc34)cc12)C(F)(F)F` [Example 816, (S)-6-(((1-(bicyclo[1.1.1]pentan-1-yl)-1H-1,2,3-triazol-4-yl)(8-fluoroquinolin-5-yl)methyl)amino)-4-((3,3,3-trifluoro-2,2-dimethylpropyl)amino)quinoline-3,8-dicarbonitrile] came in with an IC50 of 1 nM.
The compound `CC(C)(C)CNc1c(C#N)cnc2c(C#N)cc(N[C@H](c3cn(C4(C(F)(F)F)CC4)nn3)c3cccc4ncsc34)cc12` [Example 66, (S)-6-((benzo[d]thiazol-7-yl(1-(1-(trifluoromethyl)cyclopropyl)-1H-1,2,3-triazol-4-yl)methyl)amino)-4-(neopentylamino)quinoline-3,8-dicarbonitrile] showed an IC50 under setting [1] of 3 nM.
In the case of `Cn1cc([C@H](Nc2cc(Cl)c3ncc(C#N)c(Nc4ccc(F)c(Cl)c4)c3c2)c2cccnc2)nn1` [Example 343, (R)-8-chloro-4-((3-chloro-4-fluorophenyl)amino)-6-(((1-methyl-1H-1,2,3-triazol-4-yl)(pyridin-3-yl)methyl)amino)quinoline-3-carbonitrile], under setting [2], the IC50 amounted to 504 nM.
Under setting [1], `CC(C)(C)CNc1c(C#N)cnc2c(C#N)cc(N[C@H](c3cn(C4(C(F)(F)F)CC4)nn3)c3csc4c3CCN(C3COC3)C4)cc12` [Example 429, (S)-4-(neopentylamino)-6-(((6-(oxetan-3-yl)-4,5,6,7-tetrahydrothieno[2,3-c]pyridin-3-yl)(1-(1-(trifluoromethyl)cyclopropyl)-1H-1,2,3-triazol-4-yl)methyl)amino)-quinoline-3,8-dicarbonitrile] had a half-inhibitory concentration (IC50) of 2 nM.
As for `Cc1nc(F)ccc1[C@H](Nc1cc(C#N)c2ncc(C#N)c(NCC(C)(C)C)c2c1)c1nnn(C2(C3CC3)CC2)c1F` [Example 865], for the setting “read-out: IC50 HTRF, Cot HTRF (TR-FRET KinEASE) biochemical assay, 400 μM ATP”, the IC50 was 4 nM.
`N#Cc1csc([C@H](Nc2cc(Cl)c3ncc(C#N)c(Nc4ccc(F)c(Cl)c4)c3c2)c2cn(CCO)nn2)c1` [Example 333, (R)-8-chloro-4-((3-chloro-4-fluorophenyl)amino)-6-(((4-cyanothiophen-2-yl)(1-(2-hydroxyethyl)-1H-1,2,3-triazol-4-yl)methyl)amino)quinoline-3-carbonitrile] came in with a concentration for half-maximal inhibition (IC50) under setting [1] of 3 nM.
In the case of `Cc1n[nH]c2cccc([C@H](Nc3cc(C#N)c4ncc(C#N)c(NCC(C)(C)C)c4c3)c3cn(C4(C(F)F)CC4)nn3)c12` [Example 571], the IC50 under setting [2] was found to be 2 nM.
Same read-out and setting: to `CC(C)n1cc([C@@H](Nc2cc(Cl)c3ncc(C#N)c(Nc4ccc(F)c(Cl)c4)c3c2)c2cc(Br)cnc2Cl)nn1` [Example 293, (S)-6-(((5-brorno-2-chloropyridin-3-yl)(1-isopropyl-1H-1,2,3-triazol-4-yl)methyl)amino)-8-chloro-4-((3-chloro-4-fluorophenyl)-amino)quinoline-3-carbonitrile] belongs 32 nM.
`CCN1CCc2c([C@H](Nc3cc(Cl)c4ncc(C#N)c(Nc5ccc(F)c(Cl)c5)c4c3)c3c[nH]nn3)csc2C1` [Example 270, (S)-8-chloro-4-((3-chloro-4-fluoro-phenyl)amino)-6-(((6-ethyl-4,5,6,7-tetrahydrothieno[2,3-c]pyridin-3-yl)(1H-1,2,3-triazol-4-yl)methyl)-amino)quinoline-3-carbonitrile] returned a half-inhibitory concentration (IC50) under setting [1] of 4 nM.
Take `COc1c([C@@H](Nc2cc(C#N)c3ncc(C#N)c(NCC(C)(C)C)c3c2)c2ccc(F)nc2C)nnn1C1CC1` [Example 859, (S)-6-(((1-cyclopropyl-5-methoxy-1H-1,2,3-triazol-4-yl)(6-fluoro-2-methylpyridin-3-yl)methyl)amino)-4-(neopentylamino)quinoline-3,8-dicarbonitrile]: the concentration for half-maximal inhibition (IC50) under setting [3] was 2 nM.
On to `CC(C)(C)CNc1c(C#N)cnc2c(C#N)cc(N[C@H](c3cn(C4CC4)nn3)c3cccc4ncccc34)cc12` [Example 467, (S)-6-(((1-cyclopropyl-1H-1,2,3-triazol-4-yl)(quinolin-5-yl)methyl)amino)-4-(neopentylamino)quinoline-3,8-dicarbonitrile], for which, under setting [1], the concentration for half-maximal inhibition (IC50) worked out at 2 nM.
On the same count and under the same terms, to `Cn1c(=O)ccc2c([C@H](Nc3cc(Cl)c4ncc(C#N)c(NCC(C)(C)C)c4c3)c3cn(C45CC(C4)C5)nn3)cccc21` [Example 786, (S)-6-(((1-(bicyclo[1.1.1]pentan-1-yl)-1H-1,2,3-triazol-4-yl)(1-methyl-2-oxo-1,2-dihydroquinolin-5-yl)methyl)amino)-8-chloro-4-(neopentylamino)quinoline-3-carbonitrile] belongs 5 nM.
